Results from the PolyMetriX glass transition set.
± gives the standard deviation of the reports.

Row | Compound | glass transition temperature [°C]
1 | *c1ccc2c(c1)C(=O)N(c1cccc(C(F)(F)C(F)(F)C(F)(F)C(F)(F)C(F)(F)c3cccc(N4C(=O)c5ccc(C(F)(F)C(F)(F)C(F)(F)C(*)(F)F)cc5C4=O)c3)c1)C2=O (repeat unit) | 144.00
2 | *C1C2CCC(C2)C1S(*)(=O)=O (repeat unit) | 33.00
3 | *CCN(*)C(=O)c1cc(F)c(F)cc1F (repeat unit) | 105.00
4 | *c1cccc(P(C)(=O)c2cccc(N3C(=O)c4ccc(Oc5ccc(C(C)(C)c6ccc(Oc7ccc8c(c7)C(=O)N(*)C8=O)cc6)cc5)cc4C3=O)c2)c1 (repeat unit) | 228.00
5 | *Oc1ccc(C(C)(C)c2ccc(OC(=O)SCCCSC(*)=O)cc2)cc1 (repeat unit) | 90.00
6 | *c1ccc(Oc2ccc(N3C(=O)c4cccc(Oc5cccc6c5C(=O)N(*)C6=O)c4C3=O)cc2)cc1 (repeat unit) | 293.8 ± 1.8
7 | *Oc1ccc(CC(NC(=O)CCc2ccc(OC(=O)CCCC(*)=O)cc2)C(=O)OCC)cc1 (repeat unit) | 70.00
8 | *CC(*)c1ccc([CH]([Sn]([CH3])([CH3])[CH3])[Sn]([CH3])([CH3])[CH3])cc1 (repeat unit) | 140.00
9 | *Nc1ccc(-c2c(-c3ccccc3)cc(-c3ccc(-c4cc(-c5ccccc5)c(-c5ccc(NC(=O)c6ccc(C(*)=O)cc6)cc5)c(-c5ccccc5)c4)cc3)cc2-c2ccccc2)cc1 (repeat unit) | 290.00
10 | *CCC1CC(=O)N(*)C1=O (repeat unit) | 131.00
11 | *Nc1ccc(Cc2ccc(NC(=O)NCCCCCCNC(*)=O)cc2)cc1 (repeat unit) | 78.00
12 | *Oc1ccc(C2(c3ccc(Oc4ccc(/C=C/C(=O)c5ccc(*)cc5)cc4)cc3)c3ccccc3-c3ccccc32)cc1 (repeat unit) | 195.00
13 | *CC(*)(C)C(=O)OCc1ccc2c(c1)c1ccccc1n2CCCCCCCCCCCC (repeat unit) | 25.00
14 | *Oc1ccc(Nc2ccc(S(=O)(=O)c3ccc(Nc4ccc(Oc5ccc(C(C)(C)c6ccc(*)cc6)cc5)cc4)cc3)cc2)cc1 (repeat unit) | 145.00
15 | *c1ccc(Cc2ccc(N3C(=O)c4cccc5c(N6CCC(CCCC7CCN(c8ccc9c%10c(cccc8%10)C(=O)N(*)C9=O)CC7)CC6)ccc(c45)C3=O)c(C(C)(C)C)c2)cc1C(C)(C)C (repeat unit) | 202.70
16 | *CC(*)(C)C(=O)OCCCCCCCCCCOc1ccc(OC(=O)c2ccc(OCCCCCCCC)cc2)cc1 (repeat unit) | 12.00
17 | *C(=O)Nc1cccc2c(NC(=O)c3ccc4c(c3)C(=O)N(c3ccc(Oc5cccc6c(N7C(=O)c8ccc(*)cc8C7=O)cccc56)cc3)C4=O)cccc12 (repeat unit) | 299.00
18 | *c1ccc(-c2ccc(N3C(=O)c4ccc(Oc5ccc(Oc6ccc7c(c6)C(=O)N(*)C7=O)cc5)cc4C3=O)cc2)cc1 (repeat unit) | 266.00
19 | *CCCCCCCCCCN/C(C)=N/* (repeat unit) | 80.00
20 | *c1ccc(-c2ccc(-n3c(=O)c4cc5c(=O)n(*)c(=O)c5cc4c3=O)cc2C(F)(F)F)c(C(F)(F)F)c1 (repeat unit) | 379.00 ± 21
21 | *Cc1ccc(CNC(=O)CCCCCCCCCCCCCC(=O)N*)cc1 (repeat unit) | 90.00
22 | *CC(*)C(=O)NCP(=O)(O)O (repeat unit) | 26.00
23 | *CC(*)c1c(F)c(F)c(C(F)(F)F)c(F)c1F (repeat unit) | 112.00

Row | Compound | glass transition temperature [°C]
24 | *CC(*)(C)C(=O)Oc1ccc(C(=O)c2ccccc2)cc1 (repeat unit) | 118.00
25 | *Oc1ccc(NC(=O)/C=C/c2ccc(/C=C/C(=O)Nc3ccc(*)cc3)cc2)cc1 (repeat unit) | 205.00
26 | *CCCCCCCCCCOc1ccc(/C=C/c2ccc(OCCCCCCCCCCOP(=O)(O*)OCCCCCCCCCCOc3ccc(/N=N/c4ccc(Cl)cc4)cc3)cc2)cc1 (repeat unit) | 60.00
27 | *O[Si](C)(C)O[Si](C)(C)O[Si](C)(C)O[Si](C)(C)c1ccc([Si](*)(C)C)cc1 (repeat unit) | -72.00
28 | *CC(*)(C)C(=O)OCc1ccc(OCCOCCOCCOCC)c(OCCOCCOCCOCC)c1 (repeat unit) | -92.00
29 | *c1ccc(Oc2cccc(N3C(=O)c4ccc(Oc5cc6ccccc6cc5Oc5ccc6c(c5)C(=O)N(*)C6=O)cc4C3=O)c2)cc1 (repeat unit) | 226.00
30 | *CC(O)CN(C)S(=O)(=O)c1ccc(-c2ccc(S(=O)(=O)N(C)CC(O)COc3ccc(O*)cc3)cc2)cc1 (repeat unit) | 84.00
31 | *O[Si](C)(C)O[Si](C)(C)O[Si](C)(C)O[Si](C)(C)O[Si](C)(C)Oc1c(*)c2ccccc2c2ccccc12 (repeat unit) | -38.00
32 | *c1ccc2c(c1)C(=O)N(c1ccc(OCCOCCOCCOc3ccc(N4C(=O)c5ccc(C(*)(C(F)(F)F)C(F)(F)F)cc5C4=O)cc3)cc1)C2=O (repeat unit) | 166.00
33 | *C(=O)Oc1ccc(C(c2ccc(OC(=O)c3ccc4c(c3)C(=O)N(c3c(C)cc(-c5cc(C)c(N6C(=O)c7ccc(*)cc7C6=O)c(C)c5)cc3C)C4=O)cc2)(C(F)(F)F)C(F)(F)F)cc1 (repeat unit) | 335.00
34 | *CC(*)(C)C(=O)Oc1ccc(/N=N/c2ccc([N+](=O)[O-])cc2)cc1 (repeat unit) | 145.00
35 | *CC(*)(C)C(=O)OCC#CO[Si](C)(C)C (repeat unit) | 57.00
36 | *CC(*)(CC(=O)OCc1ccccc1)C(=O)OCc1ccccc1 (repeat unit) | 55.00
37 | *CC(O)CN(CC(O)COc1ccc(C(C)(C)c2ccc(O*)cc2)cc1)c1ccc(C#N)cc1 (repeat unit) | 100.00
38 | *OC(COCCOC)COC(*)=O (repeat unit) | -50.00
39 | *C(C)C(*)C(=O)OCCCC (repeat unit) | 90.00
40 | *O[Si](C)(C)CC[Si](*)(C)O[Si](C)(C)C (repeat unit) | -89.00
41 | *c1ccc(Oc2ccc(C(=O)c3ccc(Oc4ccc(-c5c6c(c(*)c7ccccc57)C(=O)N(c5ccccc5F)C6=O)cc4)cc3)cc2)cc1 (repeat unit) | 282.00
42 | *c1ccc(-c2ccc(-c3ccc([Si](*)(C)C)s3)s2)s1 (repeat unit) | 45.00
43 | *Oc1ccc(CC(NC(=O)CCc2ccc(OC(=O)CCCCC(*)=O)cc2)C(=O)OCc2ccccc2)cc1 (repeat unit) | 54.50
44 | *CCC(=O)Nc1ccc(Oc2cccc(NC(=O)CCN3C(=O)c4ccc(C(=O)c5ccc6c(c5)C(=O)N(*)C6=O)cc4C3=O)c2)cc1 (repeat unit) | 224.00
45 | *CCCCOC(=O)NCC(F)(F)C(F)(F)C(F)(F)C(F)(F)CNC(=O)O* (repeat unit) | 33.00
46 | *c1ccc(-c2cc(C(C)(C)C)c(Oc3ccc(-n4c(=O)c5cc6c(=O)n(*)c(=O)c6cc5c4=O)cc3C(F)(F)F)c(C(C)(C)C)c2)cc1 (repeat unit) | 420.00

Row | Compound | glass transition temperature [°C]
47 | *CC/C=C(/*)C(C)C (repeat unit) | -47.00
48 | *C(=O)c1ccc2c(c1)C(=O)N(c1ccc(-c3ccc(NC(=O)c4cccc(C(=O)Nc5ccc(-c6ccc(N7C(=O)c8ccc(*)cc8C7=O)cc6)cc5)c4)cc3)cc1)C2=O (repeat unit) | 238.00
49 | *CC(*)n1c2ccccc2c2c3ccccc3ccc21 (repeat unit) | 291.50
50 | *Nc1c(C)c(C)c(C(=O)c2ccc(NC(=O)c3ccc(C(*)=O)cc3)cc2)c(C)c1C (repeat unit) | 366.00
51 | *c1ccc(Oc2ccc(C(=O)c3cccc(C(=O)c4ccc(Oc5ccc(N6C(=O)c7ccc(Oc8ccc9c(c8)C(=O)N(*)C9=O)cc7C6=O)cc5)cc4)c3)cc2)cc1 (repeat unit) | 208.00
52 | *Oc1ccc(OC(=O)c2cc(OCCCCCOCC3CCCN3c3ccc([N+](=O)[O-])cc3)c(C(*)=O)cc2OCCCCCOCC2CCCN2c2ccc([N+](=O)[O-])cc2)cc1 (repeat unit) | 63.00
53 | *CCCCOC(=O)c1ccc(C(=O)O*)cc1 (repeat unit) [Poly(butylene terephthalate)] | 44.12 ± 6
54 | *CC(*)S(=O)(=O)c1ccccc1 (repeat unit) | 128.00
55 | *Oc1ccc(/N=C/CCC/C=N/c2ccc(OC(=O)Nc3cc(NC(*)=O)ccc3C)cc2)cc1 (repeat unit) | 69.00
56 | *CC1CC(*)C(OC(=O)CCCCCCCCCCOc2ccc(-c3ccc(C#N)cc3)cc2)C1 (repeat unit) | 30.50
57 | *CCNC(=O)CCCCC(=O)N* (repeat unit) | 71.00
58 | *CC(*)(F)C(=O)OCCC(F)(F)C(F)(F)C(F)(F)C(F)(F)C(F)(F)C(F)(F)F (repeat unit) | 53.00
59 | *NC(CCC(=O)Nc1ccc(N(c2ccccc2)c2ccccc2)cc1)C(*)=O (repeat unit) | 132.00
60 | *CC(OO*)c1ccc(C)cc1 (repeat unit) | 4.60
61 | *OP(=O)(Oc1ccc(Cl)cc1)Oc1c(Cl)c(Cl)c(*)c(Cl)c1Cl (repeat unit) | 119.00
62 | *Oc1ccc(C(C)(C)c2ccc(OC(=O)c3ccc(C(*)=O)cc3)c(Cl)c2)cc1Cl (repeat unit) | 190.00
63 | *CC(*)C(=O)Oc1ccc(OC)cc1 (repeat unit) | 50.50
64 | *OC1C(C)(C)C(OC(=O)C2CCC(C(*)=O)CC2)C1(C)C (repeat unit) | 169.00
65 | *Oc1cc(OC(=O)c2ccc(OCCCC)cc2)c(OC(=O)CCCC(*)=O)cc1OC(=O)c1ccc(OCCCC)cc1 (repeat unit) | 59.00
66 | *CC(*)OC (repeat unit) [Poly(methyl vinyl ether)] | -26.97 ± 3.8
67 | *c1ccc2c(c1)C(=O)N(c1ccc(OCCCCCCOc3ccc(N4C(=O)c5ccc(C(*)(C(F)(F)F)C(F)(F)F)cc5C4=O)cc3)cc1)C2=O (repeat unit) | 167.00
